Test results published in patent US20160115200A1, “New Use for JNK Inhibitor Molecules for Treatment of Various Diseases” (XIGEN INFLAMMATION LTD., priority 2013, published 2016).
Square brackets hold non-standard residues; d marks the D form. Ends that are not written are not given here.

Key:
[1] = tested on: primary rat lymph-nodes purified T cells; experiment: CD3/CD28-induced IL-2 release in primary rat lymph-nodes purified T cells; type: cell-based; details: inhibitor 1 h before CD3/CD28 (2 μg/mL), supernatant after 24 h
Description: Control rat were sacrificed and lymph-nodes were harvested. T cells further were purified (using magnetic negative selection) and plated into 96-well plates at 200.000 cells/well. Cells were treated with anti-rat CD3 and anti-rat CD28 antibodies (2 μg/mL). JNK inhibitor with SEQ ID NO: 172 was added to the cultures 1 h before CD3/CD28 treatment and IL-2 release was assessed in supernatant 24 h after treatment.
Control animal were sacrificed, lymph nodes (LN) were harvested and kept in complete RPMI medium. LN were smashed with complete RPMI on 70 μm filter using a 5 ml piston. A few drops of media were added to keep strainer wet. Cells were centrifuged for 7 min at 450 g and 4° C. Pellet was resuspended in 5 ml fresh medium. Cells were passed again through cell strainer. An aliquot of cells was counted, while cells were centrifuged again 10 min at 1400 rpm and 4° C. Cells were resupended in MACS buffer (80 μl of MACS buffer per 10^7 cells). 10 μl of anti-rat MHC microbeads were added per 10 million cells, cells were incubated for 15 min at 4°-8° C. Cells were washed with 15 ml MACS buffer and centrifuge for 7 min at 700 g and 4° C. […] Resuspended cells were counted and plated at density of 200000 cells/well in 100 μl of complete medium. […] Cytokines were then measured using standard Elisa kits. Results are expressed as pg/ml of supernatant of the measured cytokine. […]

[2] = tested on: endotoxins-induced uveitis albino rat model; experiment: Endotoxins-induced uveitis (EIU), single intravenous injection, clinical scoring 24 h after LPS; type: in vivo; set-up: key to EIU clinical score, median: clinical score per eye, 0 to 4 scale
Description: The aim of this study was to determine the effects of single intravenous injections of SEQ ID NO: 172 (0.015, 0.18, and 1.80 mg/kg) on the inflammatory response in an endotoxins-induced uveitis albino rat model and to compare these affects to those obtained with prior art JNK inhibitor of SEQ ID NO: 197 (2 mg/kg). As a further control served phosphate sodic dexamethasone.
Sixty (60) male Lewis rats were randomly divided into six (6) groups of ten (10) animals each. EIU was induced by footpad injection of lipopolysaccharide (LPS, 1 mg/kg). NaCl (0.9%), SEQ ID NO: 197 at 2 mg/kg and SEQ ID NO: 172 at three concentrations (1.80 mg/kg, 0.18 mg/kg and 0.015 mg/kg) were administered by intravenous injection. Phosphate sodic dexamethasone (20 μg/eye) was administered by sub-conjunctival injection in both eyes. 24 hours after LPS injection, inflammatory response was evaluated by clinical scoring.
The intensity of clinical ocular inflammation was scored on a scale from 0 to 4 for each eye: […]

[3] = tested on: mouse model of scopolamine-induced dry eye; experiment: Scopolamine-induced dry eye in mice (TBUT, PRTT, histopathology); type: in vivo
Source text: The objective of this study was to assess the effects of two different compounds, the all-D-retro-inverso JNK-inhibitor (poly-)peptide of SEQ ID NO: 197 and the JNK inhibitor (poly-)peptide of SEQ ID NO: 172, at three dose levels in a mouse model of scopolamine-induced dry eye.
The study consisted of a total of 9 groups of female C57BL/6 mice, comprising 8 groups of 12 mice each and an additional group of 4 mice. Bilateral short-term dry eye was induced by a combination of scopolamine hydrobromide (Sigma-Aldrich Corp., St. Louis, Mo.) injection (subcutaneous (SC), four times daily, 0.5 mg/dose, Days 0-21) and by exposing mice to the drying environment of constant air draft. […] Mice of Group 9 were maintained as un-induced, (no dry eye) untreated controls.
During the in-life (treatment) period, clinical observations were recorded once daily; slit-lamp examination (SLE) with corneal fluorescein staining, tear break-up time test (TBUT), and phenol red thread test (PRTT) were performed three times per week. Necropsies were performed on Day 22; eyes, eye lids, conjunctivae, and lacrimal glands were collected from both eyes of each animal. Tissues from the right eyes (oculus dexter, OD) were fixed and then evaluated microscopically. Tissues from the left eyes (oculus sinister; OS) were flash-frozen in liquid nitrogen and stored frozen at −80° C. for possible subsequent analyses.
The TBUT test was conducted three times weekly by measuring the time elapsed in seconds between a complete blink after application of fluorescein to the cornea and the appearance of the first random dry spot in the tear film. […] At least ninety seconds later, corneal epithelial damage was graded using a slit-lamp with a cobalt blue filter after another drop of 0.1% fluorescein was reapplied to the cornea; the cornea then was scored per the Draize ocular scale.
Tear production was measured three times a week in both eyes using PRTT test strips (Zone-Quick; Menicon, Nagoya, Japan). Prior to the first treatment of the day, a thread was applied to the lateral canthus of the conjunctival fornix of each eye for 30 seconds under slit-lamp biomicroscopy. Tear migration up the tread (i.e., the length of the wetted cotton thread) was measured using a millimeter scale.
At necropsy on Day 22, both eyes from each animal, including the globes, lacrimal glands, eyelids, and conjunctivae, were excised. The right eye and associated tissues were fixed by overnight submersion in modified Davidson's solution followed by transfer to 10% neutral buffered formalin (NBF). The fixed tissues of the right eye were dehydrated, embedded in paraffin, sectioned at 3 to 5-μm thicknesses, and slide-mounted tissues were stained with hematoxylin and eosin (H & E). Stained slides were evaluated via light microscopy. Detailed and complete histopathologic assessment was conducted on all parts of the eye, with at least two section levels being examined histopathologically for each right eye. Special attention was paid to the cornea, epithelia (including goblet cells) of the conjunctiva and cornea, as well as the lacrimal gland. These tissues were scored for injury based upon a 0-4 scale, with 0 being normal, 1 being minimal, 2 being mild, 3 being moderate, and 4 being severe. For each cornea, scores were based on corneal epithelium thickness, and corneal inflammation. Conjunctivae were scored for erosion and inflammation as well as presence or absence of goblet cells.

[4] = 2 mg/kg i.v., 24 hours after LPS

Substance: dqsrpvqpflnlttprkprpprrrqrrkkrg ([dD][dQ][dS][dR][dP][dV][dQ][dP][dF][dL][dN][dL][dT][dT][dP][dR][dK][dP][dR][dP][dP][dR][dR][dR][dQ][dR][dR][dK][dK][dR]G) [SEQ ID NO: 197, reference compound]
- CD3/CD28-induced IL-2 release [1]: Dose-dependent inhibition
- EIU clinical score, median [2, 4]: 2
- decrease of EIU scores compared with vehicle group [2, 4]: 40%
- EIU clinical score, mean±SEM ([2]; 2 mg/kg i.v., 24 hours after LPS, scale 0 to 4 (+1)): 2.2±0.3
- endotoxin-induced inflammation in the anterior chamber ([2]; single intravenous injection 2 mg/kg): partially prevented the endotoxin-induced inflammation
- Mean PRTT AUC ([3]; Day 7-21, high dose 0.6% (SEQ ID NO: 197 Group 4; SEQ ID NO: 172 Group 7)): 43.17
- Mean PRTT AUC ([3]; Day 7-21, low dose (SEQ ID NO: 197 0.06% Group 2; SEQ ID NO: 172 0.05% Group 5)): 39.96
- Mean PRTT AUC ([3]; Day 7-21, mid dose (SEQ ID NO: 197 0.25% Group 3; SEQ ID NO: 172 0.2% Group 6)): 42.79
- Mean Calculated TBUT AUC ([3]; Day 7 to Day 21, high dose 0.6% (SEQ ID NO: 197 Group 4; SEQ ID NO: 172 Group 7)): 89.98
- Mean Calculated TBUT AUC ([3]; Day 7 to Day 21, low dose (SEQ ID NO: 197 0.06% Group 2; SEQ ID NO: 172 0.05% Group 5)): 88.54
- Mean Calculated TBUT AUC ([3]; Day 7 to Day 21, mid dose (SEQ ID NO: 197 0.25% Group 3; SEQ ID NO: 172 0.2% Group 6)): 91.19
- PRTT change with dose ([3]; SEQ ID NO: 197 0.06%, 0.25% and 0.6%, Groups 2, 3 and 4): generally dose-dependent increases in PRTT
- TBUT change with dose ([3]; SEQ ID NO: 197 low, mid and high dose (Groups 2-4)): slight generally dose-dependent increases in TBUT
- corneal changes (histology) compared with other treatment groups ([3]; low dose SEQ ID NO: 197 (Group 2)): slightly more severe
- histological cornea scores compared with cyclosporine group ([3]; mid and high-dose SEQ ID NO: 172 (Groups 6, 7), high-dose SEQ ID NO: 197 (Group 4)): not significantly different than the cyclosporine group scores
